Experimental data: patent US11254663B2 (BRISTOL-MYERS SQUIBB COMPANY, priority 2019, dated 2022)

Target: FXR (Homo sapiens (Human), UniProt Q96RI1)
Assay: FXR EC50 (FXR agonist potency reported with each Example)
Type: cell-based

FXR, sequence (Q96RI1 262-486): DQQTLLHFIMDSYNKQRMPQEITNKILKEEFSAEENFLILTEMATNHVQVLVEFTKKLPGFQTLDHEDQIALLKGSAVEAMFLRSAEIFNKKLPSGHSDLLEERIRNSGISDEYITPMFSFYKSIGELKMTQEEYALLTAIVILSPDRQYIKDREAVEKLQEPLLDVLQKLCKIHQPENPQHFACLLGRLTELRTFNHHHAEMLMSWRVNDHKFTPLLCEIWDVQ

Structure (SMILES) | EC50
O=C(N(CC12CCC(c3noc(C(F)F)n3)(CC1)CC2)c1cccc(-c2nnc(C3CC3)o2)c1)C12CC(F)(C1)C2 [Example 156, N-(3-(5-cyclopropyl-1,3,4-oxadiazol-2-yl)phenyl)-N-((4-(5-(difluoromethyl)-1,2,4-oxadiazol-3-yl)bicyclo[2.2.2]octan-1-yl)methyl)-3-fluorobicyclo[1.1.1]pentane-1-carboxamide] | 103 nM
O=C(N(CC12CCC(c3noc(C4(C(F)(F)F)CC4)n3)(CC1)CC2)c1cccc(-c2cn[nH]c2)c1)C12CC(F)(C1)C2 [Example 209, N-(3-(1H-pyrazol-4-yl)phenyl)-3-fluoro-N-((4-(5-(1-(trifluoromethyl)cyclopropyl)-1,2,4-oxadiazol-3-yl)bicyclo[2.2.2]octan-1-yl)methyl)bicyclo[1.1.1]pentane-1-carboxamide] | 152 nM
CC1(c2nc(C34CCC(CN(C(=O)C56CC(F)(C5)C6)c5cccc(-c6nc(C7CC7)no6)c5)(CC3)CC4)no2)CC1 [Example 115, N-(3-(3-cyclopropyl-1,2,4-oxadiazol-5-yl)phenyl)-3-fluoro-N-((4-(5-(1-methylcyclopropyl)-1,2,4-oxadiazol-3-yl)bicyclo[2.2.2]octan-1-yl)methyl) bicyclo[1.1.1]pentane-1-carboxamide] | 35 nM
O=C(N(CC12CCC(c3nc(C4CC4)no3)(CC1)CC2)c1cccc(-c2nc(C(F)F)co2)c1)C12CC(F)(C1)C2 [Example 40, N-((4-(3-cyclopropyl-1,2,4-oxadiazol-5-yl)bicyclo[2.2.2]octan-1-yl)methyl)-N-(3-(4-(difluoromethyl)oxazol-2-yl)phenyl)-3-fluorobicyclo[1.1.1]pentane-1-carboxamide] | 243 nM
CC(F)(F)c1nc(-c2cccc(N(CC34CCC(c5ccc(C(F)(F)F)cn5)(CC3)CC4)C(=O)C34CC(F)(C3)C4)c2)no1 [Example 190, N-(3-(5-(1,1-difluoroethyl)-1,2,4-oxadiazol-3-yl)phenyl)-3-fluoro-N-((4-(5-(trifluoromethyl)pyridin-2-yl)bicyclo[2.2.2]octan-1-yl)methyl)bicyclo[1.1.1]pentane-1-carboxamide] | 281 nM
Cc1cnc(C23CCC(CN(C(=O)C4CCC(F)(F)C4)c4cccc(-c5nc(C6CC6)no5)c4)(CC2)CC3)o1 (stereo not drawn) [Example 39, N-(3-(3-cyclopropyl-1,2,4-oxadiazol-5-yl)phenyl)-3,3-difluoro-N-((4-(5-methyloxazol-2-yl)bicyclo[2.2.2]octan-1-yl)methyl)cyclopentane-1-carboxamide] | 308 nM
COc1cc(-c2cccc(N(CC34CCC(c5nc(C)no5)(CC3)CC4)C(=O)C34CC(F)(C3)C4)c2)ccn1 [Example 228, 3-fluoro-N-(3-(2-methoxypyridin-4-yl)phenyl)-N-((4-(3-methyl-1,2,4-oxadiazol-5-yl)bicyclo[2.2.2]octan-1-yl)methyl)bicyclo[1.1.1]pentane-1-carboxamide] | 442 nM
N#CC1(c2ccc(C34CCC(CN(C(=O)C5CC(F)(F)C5)c5cccc(-c6nc(C7CC7)no6)c5)(CC3)CO4)cc2)CC1 [Example 142, N-((1-(4-(1-cyanocyclopropyl)phenyl)-2-oxabicyclo[2.2.2]octan-4-yl)methyl)-N-(3-(3-cyclopropyl-1,2,4-oxadiazol-5-yl)phenyl)-3,3-difluorocyclobutuane-1-carboxamide] | 583 nM
CC(C)c1nc(-c2cccc(N(CC34CCC(c5cc(C6CC6)nn5C)(CC3)CC4)C(=O)C34CC(F)(C3)C4)c2)no1 [Example 163, N-((4-(3-cyclopropyl-1-methyl-1H-pyrazol-5-yl)bicyclo[2.2.2]octan-1-yl)methyl)-3-fluoro-N-(3-(5-isopropyl-1,2,4-oxadiazol-3-yl)phenyl)bicyclo[1.1.1]pentane-1-carboxamide] | 156 nM
O=C([C@H]1C[C@](O)(C(F)(F)F)C1)N(CC12CCC(c3nc(C4CC4)no3)(CC1)CC2)c1cccc(-c2nc(C(F)F)co2)c1 [Example 42, (1s, 3s)-N-((4-(3-cyclopropyl-1,2,4-oxadiazol-5-yl)bicyclo[2.2.2]octan-1-yl)methyl)-N-(3-(4-(difluoromethyl)oxazol-2-yl)phenyl)-3-hydroxy-3-(trifluoromethyl)cyclobutane-1-carboxamide] | 613 nM
O=C(N(CC12CCC(c3nc(CC4CC4)no3)(CC1)CC2)c1cccc(-c2nc(C3CC3)no2)c1)C12CC(F)(C1)C2 [Example 68, N-(3-(3-cyclopropyl-1,2,4-oxadiazol-5-yl)phenyl)-N-((4-(3-(cyclopropylmethyl)-1,2,4-oxadiazol-5-yl)bicyclo[2.2.2]octan-1-yl)methyl)-3-fluorobicyclo[1.1.1]pentane-1-carboxamide] | 110 nM
CCc1noc(-c2cccc(N(CC34CCC(c5nc(C6CC6)no5)(CC3)CC4)C(=O)C34CC(F)(C3)C4)c2)n1 [Example 6, N-((4-(3-cyclopropyl-1,2,4-oxadiazol-5-yl)bicyclo[2.2.2]octan-1-yl)methyl)-N-(3-(3-ethyl-1,2,4-oxadiazol-5-yl)phenyl)-3-fluorobicyclo[1.1.1]pentane-1-carboxamide] | 135 nM
CC(C)(C)CNC(=O)N(CC12CCC(c3nc(C4CC4)no3)(CC1)CC2)c1cccc(-c2nc(C3CC3)no2)c1 [Example 92, 1-((4-(3-cyclopropyl-1,2,4-oxadiazol-5-yl)bicyclo[2.2.2]octan-1-yl)methyl)-1-(3-(3-cyclopropyl-1,2,4-oxadiazol-5-yl)phenyl)-3-neopentylurea] | 420 nM
CS(=O)(=O)n1cc(-c2cccc(N(CC34CCC(c5nc(C6CC6)no5)(CC3)CC4)C(=O)C34CC(F)(C3)C4)c2)cn1 [Example 159, N-((4-(3-cyclopropyl-1,2,4-oxadiazol-5-yl)bicyclo[2.2.2]octan-1-yl)methyl)-3-fluoro-N-(3-(1-(methylsulfonyl)-1H-pyrazol-4-yl)phenyl)bicyclo[1.1.1]pentane-1-carboxamide] | 73 nM
CC(C)(C)c1nc(-c2cccc(N(CC34CCC(c5noc(C(C)(C)C)n5)(CC3)CC4)C(=O)C34CC(F)(C3)C4)c2)no1 [Example 183, N-((4-(5-(tert-butyl)-1,2,4-oxadiazol-3-yl)bicyclo[2.2.2]octan-1-yl)methyl)-N-(3-(5-(tert-butyl)-1,2,4-oxadiazol-3-yl)phenyl)-3-fluorobicyclo[1.1.1]pentane-1-carboxamide] | 18 nM
O=C(N(CC12CCC(c3nc(CC4CC4)no3)(CC1)CC2)c1cccc(-c2nc(CC3CC3)no2)c1)C12CC(F)(C1)C2 [Example 61, N-((4-(3-(cyclopropylmethyl)-1,2,4-oxadiazol-5-yl)bicyclo[2.2.2]octan-1-yl)methyl)-N-(3-(3-(cyclopropylmethyl)-1,2,4-oxadiazol-5-yl)phenyl)-3-fluorobicyclo[1.1.1]pentane-1-carboxamide] | 99 nM
CC(C)(C)c1noc(C23CCC(CN(C(=O)C45CC(F)(C4)C5)c4cncc(-c5nc(C6CC6)no5)c4)(CC2)CC3)n1 [Example 207, N-((4-(3-(tert-butyl)-1,2,4-oxadiazol-5-yl)bicyclo[2.2.2]octan-1-yl)methyl)-N-(5-(3-cyclopropyl-1,2,4-oxadiazol-5-yl)pyridin-3-yl)-3-fluorobicyclo[1.1.1]pentane-1-carboxamide] | 571 nM
COC1(c2nc(-c3cccc(N(CC45CCC(c6nc(C7CC7)no6)(CC4)CC5)C(=O)C45CC(F)(C4)C5)c3)no2)CC1 [Example 147, N-((4-(3-cyclopropyl-1,2,4-oxadiazol-5-yl)bicyclo[2.2.2]octan-1-yl)methyl)-3-fluoro-N-(3-(5-(1-methoxycyclopropyl)-1,2,4-oxadiazol-3-yl)phenyl)bicyclo[1.1.1]pentane-1-carboxamide] | 79 nM
CC(C)(C)c1noc(C23CCC(CN(C(=O)C45CC(F)(C4)C5)c4cccc(-c5cnn(S(=O)(=O)C6CC6)c5)c4)(CC2)OC3)n1 [Example 208, N-((4-(3-(tert-butyl)-1,2,4-oxadiazol-5-yl)-2-oxabicyclo[2.2.2]octan-1-yl)methyl)-N-(3-(1-(cyclopropylsulfonyl)-1H-pyrazol-4-yl)phenyl)-3-fluorobicyclo[1.1.1]pentane-1-carboxamide] | 618 nM
O=C(C1CC(F)(F)C1)N(CC12CCC(c3nc(C4CC4)co3)(CC1)CC2)c1cccc(-c2cnc(C3CC3)o2)c1 [Example 83, N-((4-(4-cyclopropyloxazol-2-yl)bicyclo[2.2.2]octan-1-yl)methyl)-N-(3-(2-cyclopropyloxazol-5-yl)phenyl)-3,3-difluorocyclobutane-1-carboxamide] | 590 nM
CCc1noc(-c2cccc(N(CC34CCC(c5ccc(C(C)(C)C#N)cc5)(CC3)OC4)C(=O)C34CC(F)(C3)C4)c2)n1 [Example 47, N-((1-(4-(2-cyanopropan-2-yl)phenyl)-2-oxabicyclo[2.2.2]octan-4-yl)methyl)-N-(3-(3-ethyl-1,2,4-oxadiazol-5-yl)phenyl)-3-fluorobicyclo[1.1.1]pentane-1-carboxamide] | 299 nM
O=C(N(CC12CCC(c3noc(C4CC4(F)F)n3)(CC1)CC2)c1cccc(-c2nc(C3CC3)no2)c1)C12CC(F)(C1)C2 (stereo not drawn) [Example 123, N-(3-(3-cyclopropyl-1,2,4-oxadiazol-5-yl)phenyl)-N-((4-(5-(2,2-difluorocyclopropyl)-1,2,4-oxadiazol-3-yl)bicyclo[2.2.2]octan-1-yl)methyl)-3-fluorobicyclo[1.1.1]pentane-1-carboxamide] | 73 nM
N#CC1(c2ccc(C34CCC(CN(C(=O)C5CC(F)(F)C5)c5cccc(-c6nc(C7CC7)no6)c5)(CC3)CO4)cc2)CC1 [Example 145, N-((1-(4-(1-cyanocyclopropyl)phenyl)-2-oxabicyclo[2.2.2]octan-4-yl)methyl)-N-(3-(3-cyclopropyl-1,2,4-oxadiazol-5-yl)phenyl)-3,3-difluorocyclobutane-1-carboxamide] | 4320 nM
O=C(N(CC12CCC(c3nc(C4CC4)no3)(CC1)CC2)c1cccc(-c2cnn(CC(F)F)c2)c1)C12CC(F)(C1)C2 [Example 161, N-((4-(3-cyclopropyl-1,2,4-oxadiazol-5-yl)bicyclo[2.2.2]octan-1-yl)methyl)-N-(3-(1-(2,2-difluoroethyl)-1H-pyrazol-4-yl)phenyl)-3-fluorobicyclo[1.1.1]pentane-1-carboxamide] | 96 nM
